Laboratory results published in paper PMC8333425, “Discovery of a dual Ras and ARF6 inhibitor from a GPCR endocytosis screen” (Nature Communications, 2021).
“And” between values parts separate entries of the source, which are not always exact repeats. Identical values can stand only once.

What was measured:
[1] = system: β-arrestin2 recruitment to AT1R; test: BRET recruitment of β-arrestin2 to AT1R; format: cell-based, human; details: for AngII-promoted BRET, β-arrestin2 (Barr2) recruitment to AT1R: Comp 21 50 μM, individual experiments
Experimental: HEK293SL cells were seeded at a density of 7.5 × 10^5 cells per 100-mm dish and 24 h later, transiently transfected as such. For receptor internalization experiments, cells were transfected with 0.12 μg AT1R-RlucII, B2R-RlucII, or β2AR-RlucII and 0.48 μg of either rGFP-CAAX (to assess removal from the PM) or rGFP-FYVE (to assess accumulation in the endosomes). For β-arrestin recruitment assays, cells were transfected with 0.48 μg of receptor-YFP along with 0.12 μg of β-arrestin-RlucII. For β-arrestin/AP-2 binding experiments, cells were transfected with 1 μg Flag-AT1R, 1 μg β2-Adaptin-YFP, and 0.12 μg β-arrestin2-RlucII. For G protein activation, cells were transfected with 3 μg of sp-Flag-AT1R along with either 4.5 μg of the Gαq-polycistronic BRET sensor or 0.24 μg of the Gαi3-RlucII and 0.6 μg of GFP10-Gγ2 and Gβ1 sensors or 0.12 μg PKN-RBD-RlucII and 0.48 μg of rGFP-CAAX. For PKC activation, cells were transfected with 3 μg of sp-Flag-AT1R and 0.18 μg of the PKC sensor. For GTPase activation experiments, cells were transfected with 1 μg Flag-AT1R, 0.48 μg of rGFP-CAAX, and either 0.12 μg of GGA3-PBD-RlucII, PAK-CRIB-RlucII or Raf-RBD-RlucII. For biosensor validation experiments, cells were additionally transfected with 500 ng Flag-K-Ras-WT, Flag-K-Ras-G12V, Flag-K-Ras-SOS-CAAX, HA-ARF6-WT, HA-ARF6-T27N, Myc-Rac1-WT, Myc-Rac1-Q61L or Myc-Rac1-T17N. For PI3K/Akt activation experiments, cells were transfected with 0.48 μg of rGFP-CAAX and 0.12 μg of Akt (PH)-RlucII. After 18 h of transfection, the media was replaced and cells were divided for subsequent experiments. Cells were detached and seeded onto poly-L-ornithine-coated 96-well flat white bottom plates (BrandTech Scientific) at a density of 2.5 × 10^4 cells per well in media. The next day, cells were washed once with Tyrode’s buffer (140 mM NaCl, 2.7 mM KCl, 1 mM CaCl2, 12 mM NaHCO3, 5.6 mM D-glucose, 0.5 mM MgCl2, 0.37 mM NaH2PO4, 25 mM HEPES, pH 7.4) and left in Tyrode’s buffer. For kinetics of β-arrestin recruitment or β-arrestin binding to receptor and AP-2 experiments, cells were serum starved for 30 min, pretreated with 21 (50 µM) or Barbadin (100 µM) for 30 min, stimulated with 100 nM AngII or 1 µM BK and BRET signals were monitored at indicated times using a Victor X Light plate reader (PerkinElmer). Coelenterazine H (final concentration of 5 µM) was added 3–5 min prior to BRET measurements. Filter set was 460/80 nm and 535/30 nm for detecting the RlucII Renilla luciferase (donor) and YFP (acceptor) light emissions, respectively. The BRET ratio was determined by calculating the ratio of the light emitted by YFP over the light emitted by the RlucII. For G protein activation, cells were serum starved, pretreated with compounds for 30 min, stimulated with 100 nM AngII for 2 min (Gαq, Gαi3, and Rho sensors) or 5 min (PKC sensor). For the kinetics of GTPase and PI3K/Akt activation, cells were serum starved, pretreated with 21 (50 µM) or Wortmannin (200 nM) for 30 min, stimulated with ligand (100 nM AngII or 100 ng/ml EGF) and BRET signals were monitored at indicated times. For concentration-response curves, cells were serum-starved, pretreated with various concentrations of compounds for 30 min and stimulated with ligand (100 nM AngII, 1 µM BK, 10 µM Isoproterenol (Iso) or 100 ng/ml EGF) in Tyrode’s buffer for 30 min for receptor internalization, 10 min for ARF6, 2 min for Rac and Rho activation and 5 min for Ras activation and PI3K/Akt activation. BRET signals were monitored using a Synergy2 (BioTek) microplate reader and coelenterazine 400a (final concentrations of 5 µM) added 3–5 min prior to BRET measurements. Filter set was 410/80 nm and 515/30 nm for detecting the RlucII Renilla luciferase (donor) and rGFP/GFP10 (acceptor) light emissions, respectively. The BRET ratio was determined by calculating the ratio of the light emitted by rGFP/GFP10 over the light emitted by the RlucII.

ARF1 = molecular target: T1, ARF1 (Homo sapiens, UniProt P84077); test: GST-GGA3-PBD pull-down of AT1R-mediated HA-ARF1 activation; format: cell-based; details: for ARF1-GTP/ARF1: GST-GGA3-PBD, listed as Comp 21
T1 construct: expressed in transfected cells; host or cells: HEK293SL
T1 sequence (P84077 whole entry): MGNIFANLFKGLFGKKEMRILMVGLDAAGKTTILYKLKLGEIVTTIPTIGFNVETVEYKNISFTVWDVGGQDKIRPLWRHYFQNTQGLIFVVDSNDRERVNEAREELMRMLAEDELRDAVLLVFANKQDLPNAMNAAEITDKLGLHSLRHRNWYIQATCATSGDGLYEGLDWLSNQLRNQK
Experimental: (§1) Activation of ARF1, ARF6, Ras, and Rho were assessed by using GST pull-down assays. HEK293SL cells were transiently transfected with 3 µg AT1R-flag only (Ras and Rho) or along with 500 ng HA-ARF6 (ARF6) or HA-ARF1 (ARF1). Forty-eight hours later, the HEK293 or MDA-MB-231 cells were serum-starved for 4 h with DMEM containing 20 mM HEPES then pretreated with DMSO or Rasarfin (50 µM) for 30 min. Cells were then stimulated with 1 µM AngII or 100 ng/ml EGF for 0 and 2 min. Cells were then washed once with ice-cold PBS and lysed for 30 min at 4 °C in 300 µl of lysis buffer (pH 7.5, 50 mM Tris-HCl, 140 mM NaCl, 5 mM MgCl2, 10% glycerol (v/v), 1% Nonidet P-40 (v/v), 1 mM dithiothreitol) supplemented with protease inhibitors (1 mM phenylmethyl-sulfonyl fluoride (PMSF), 10 µg/ml leupeptin, 5 µg/ml aprotinin, 1 µg/ml pepstatin A) and phosphatase inhibitors (20 mM NaF, 0.025 mM pervanadate). The samples were cleared by centrifugation and 30 µl (cell lysates) was kept for assessing total protein contents. The remaining was transferred to fresh tubes with 20 µg of either GST, GST-GGA3-PBD, GST-Raf1-RBD or GST-Rhotekin-RBD coupled to glutathione resin and rotated for 1–2 h at 4 °C. Beads were washed twice with lysis buffer and proteins were eluted in 25 μl 2x laemmli buffer by heating at 65 °C for 15 min. Proteins were resolved on 14% SDS-PAGE, transferred to nitrocellulose membranes, and immunoblotted for HA, Ras, RhoA, H-Ras, or ARF6. ImageLab 5.2 software was used to quantify the digital blots as fold of the amount of pulled down protein over total protein. Uncropped coomassie gels and immunoblots are provided in the Source Data file.

H-Ras = H-Ras (Homo sapiens, UniProt P01112); test: GST-Raf1-RBD pull-down of EGFR-mediated H-Ras activation in MDA-MB-231 cells; format: cell-based; design: endogenous in cells; host or cells: MDA-MB-231; details: 50 μM
H-Ras, sequence (P01112 whole entry): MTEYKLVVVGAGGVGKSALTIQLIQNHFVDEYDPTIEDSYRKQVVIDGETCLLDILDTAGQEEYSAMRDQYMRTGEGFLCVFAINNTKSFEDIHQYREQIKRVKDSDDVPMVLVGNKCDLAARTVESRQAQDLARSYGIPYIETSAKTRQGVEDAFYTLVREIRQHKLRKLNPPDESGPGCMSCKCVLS
Experimental: as §1, with “Beads were washed twice with lysis buffer and proteins were eluted in 25 μl 2x laemmli buffer by heating at 65 °C for 15 min. Proteins were resolved on 14% SDS-PAGE, transferred to nitrocellulose membranes, and immunoblotted for HA, Ras, RhoA, H-Ras, or ARF6.” left out, “Uncropped coomassie gels and immunoblots are provided in the Source Data file.” left out

CC(C)C(=O)N1CCN(c2ccc(NC(=O)c3cc4ccccc4o3)cc2Cl)CC1 [Compound 21]
β-arrestin2 recruitment to AT1R at the PM ([1]; 50 μM): did not preclude
AngII-promoted BRET, β-arrestin2 (Barr2) recruitment to AT1R ([1]; time 0 min): 0
AngII-promoted BRET, β-arrestin2 (Barr2) recruitment to AT1R ([1]; time 5 min): 0.1545 and 0.1824 and 0.1119
AngII-promoted BRET, β-arrestin2 (Barr2) recruitment to AT1R ([1]; time 10 min): 0.1572 and 0.2061 and 0.1651
AngII-promoted BRET, β-arrestin2 (Barr2) recruitment to AT1R ([1]; time 15 min): 0.1598 and 0.2035 and 0.1848
AngII-promoted BRET, β-arrestin2 (Barr2) recruitment to AT1R ([1]; time 30 min): 0.165 and 0.1904 and 0.1659
AngII-promoted BRET, β-arrestin2 (Barr2) recruitment to AT1R ([1]; time 60 min): 0.1705 and 0.209 and 0.1941
effect on AT1R-dependent ARF1 activation (ARF1; 50 μM): no effect
ARF1-GTP/ARF1 (ARF1; AngII): 0.143 and 0.2667 and 0.2223
ARF1-GTP/ARF1 (ARF1; Ctrl): 0.07407 and 0.04303 and 0.06878
Ras activity in MDA-MB-231 cells (pull-down) (H-Ras): inhibited
